# What was measured:
# Dihydrofolate reductase [1] = target: T1, Dihydrofolate reductase (Pneumocystis carinii, UniProt P16184)
# T1 sequence (P16184 whole entry): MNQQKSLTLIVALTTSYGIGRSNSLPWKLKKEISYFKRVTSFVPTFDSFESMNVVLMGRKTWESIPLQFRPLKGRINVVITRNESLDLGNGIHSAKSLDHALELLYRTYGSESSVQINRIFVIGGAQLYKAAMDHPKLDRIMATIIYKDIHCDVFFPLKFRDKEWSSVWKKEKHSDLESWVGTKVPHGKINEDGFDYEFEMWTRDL
# Description: Inhibitory activity against Dihydrofolate reductase from Pneumocystis carinii
# [2] = target: T2, Bifunctional dihydrofolate reductase-thymidylate synthase (Toxoplasma gondii, UniProt Q07422)
# T2 sequence (Q07422 whole entry): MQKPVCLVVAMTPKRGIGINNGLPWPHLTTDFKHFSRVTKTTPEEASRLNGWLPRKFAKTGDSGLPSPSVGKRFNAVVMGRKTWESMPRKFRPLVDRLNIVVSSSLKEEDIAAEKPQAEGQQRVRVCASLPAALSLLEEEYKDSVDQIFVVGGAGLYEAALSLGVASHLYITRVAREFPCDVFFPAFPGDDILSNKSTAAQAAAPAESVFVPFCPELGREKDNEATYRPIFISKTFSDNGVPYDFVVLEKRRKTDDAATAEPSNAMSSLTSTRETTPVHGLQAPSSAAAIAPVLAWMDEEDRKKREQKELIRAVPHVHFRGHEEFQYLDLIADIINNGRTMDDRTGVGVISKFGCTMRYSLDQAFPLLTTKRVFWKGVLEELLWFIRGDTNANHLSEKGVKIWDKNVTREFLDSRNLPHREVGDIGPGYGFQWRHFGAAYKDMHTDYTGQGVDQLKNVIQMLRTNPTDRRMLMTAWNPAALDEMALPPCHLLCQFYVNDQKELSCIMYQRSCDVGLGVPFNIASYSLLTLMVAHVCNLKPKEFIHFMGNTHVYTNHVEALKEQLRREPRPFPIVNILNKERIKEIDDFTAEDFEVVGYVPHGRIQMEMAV
# Description: Inhibitory activity against Dihydrofolate reductase from Toxoplasma gondii
# Dihydrofolate reductase [3] = target: T3, Dihydrofolate reductase (Rattus norvegicus, UniProt Q920D2)
# T3 sequence (Q920D2 whole entry): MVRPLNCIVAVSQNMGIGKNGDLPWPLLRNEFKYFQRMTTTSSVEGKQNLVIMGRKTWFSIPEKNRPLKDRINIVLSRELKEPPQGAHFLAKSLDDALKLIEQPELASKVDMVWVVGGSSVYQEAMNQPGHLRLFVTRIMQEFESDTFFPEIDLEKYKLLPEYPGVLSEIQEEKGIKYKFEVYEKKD
# Description: Inhibitory activity against Dihydrofolate reductase from rat liver
# Toxoplasma gondii = assay: Inhibitory activity against cultured Toxoplasma gondii; assay type: functional, organism-based
# HCT-15 = assay: Cytotoxic activity against HCT-15 colon cancer cell line; assay type: functional; details: Homo sapiens
# 786-0 = assay: Cytotoxic activity against 786-0 Renal cancer cell line; assay type: functional; details: Homo sapiens
# SW-620 = assay: Cytotoxic activity against SW-620 colon cancer cell line; assay type: functional; details: Homo sapiens
# MDA-MB-231 = assay: Cytotoxic activity against MDA-MB-231/ATCC Breast cancer cell line; assay type: functional; details: Homo sapiens
# UACC-62 = assay: Cytotoxic activity against UACC-62 Melanoma cell line; assay type: functional; details: Homo sapiens
# NCI-H460 = assay: Cytotoxic activity against NCI-H460 non-small cell-lung cancer cell line; assay type: functional; details: Homo sapiens
# K562 = assay: Cytotoxic activity against K-562 Leukemia cell line; assay type: functional; details: Homo sapiens
# SK-MEL-5 = assay: Cytotoxic activity against SK-MEL-5 Melanoma cell line; assay type: functional; details: Homo sapiens
# MDA-N [4] = assay: Cytotoxic activity against MDA-N Breast cancer cell line; assay type: functional; details: Homo sapiens
# IGROV-1 = assay: (§1) Cytotoxic activity against IGROV1 Ovarian cancer cell line; assay type: functional; details: Homo sapiens
# PC-3 = assay: Cytotoxic activity against PC-3 Prostate cancer cell line; assay type: functional; details: Homo sapiens
# SR = assay: Cytotoxic activity against SR Leukemia cell line; assay type: functional; details: Homo sapiens
# MOLT-4 = assay: Cytotoxic activity against MOLT-4 Leukemia cell line; assay type: functional; details: Homo sapiens
# ACHN = assay: Cytotoxic activity against ACHN Renal cancer cell line; assay type: functional; details: Homo sapiens
# HT-29 = assay: Cytotoxic activity against HT-29 colon cancer cell line; assay type: functional; details: Homo sapiens
# SF-295 = assay: Cytotoxic activity against SF-295 CNS cancer cell line; assay type: functional; details: Homo sapiens
# SF-268 = assay: Cytotoxic activity against SF-268 CNS canser cell line; assay type: functional; details: Homo sapiens
# MDA-MB-435 = assay: Cytotoxic activity against MDA-MB-435 Breast cancer cell line; assay type: functional; details: Homo sapiens
# UACC-257 = assay: Cytotoxic activity against UACC-257 Melanoma cell line; assay type: functional; details: Homo sapiens
# CCRF-CEM = assay: Cytotoxic activity against CCRF-CEM Leukemia cell line; assay type: functional; details: Homo sapiens
# LOX IMVI = assay: Cytotoxic activity against LOXIMVI Melanoma cell line; assay type: functional; details: Homo sapiens
# HCT-116 = assay: Cytotoxic activity against HCT116 colon cancer cell line; assay type: functional; details: Homo sapiens
# DU-145 = assay: Cytotoxic activity against DU-145 Prostate cancer cell line; assay type: functional; details: Homo sapiens
# A549 = assay: Cytotoxic activity against A549/ATCC non-small cell-lung cancer cell line; assay type: functional; details: Homo sapiens
# U-251 = assay: Cytotoxic activity against U251 CNS cancer cell line; assay type: functional; details: Homo sapiens
# NCI-H322M = assay: Cytotoxic activity against NCI-H322M non-small cell-lung cancer cell line; assay type: functional; details: Homo sapiens
# [5] = Ratio of the inhibitory concentrations against Toxoplasma gondii […] and Toxoplasma gondii DHFR.
# [6] = as §1; assay type: functional; details: Homo sapiens, IGROV-1
# Dihydrofolate reductase [7] = target: Dihydrofolate reductase (Lactobacillus casei, UniProt P00381)
# Chain of Dihydrofolate reductase (Lactobacillus casei, UniProt P00381) (P00381 whole entry): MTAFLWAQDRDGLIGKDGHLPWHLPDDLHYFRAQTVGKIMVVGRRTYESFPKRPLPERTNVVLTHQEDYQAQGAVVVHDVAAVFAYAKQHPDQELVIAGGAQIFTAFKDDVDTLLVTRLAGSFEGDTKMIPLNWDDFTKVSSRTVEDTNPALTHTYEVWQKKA
# Description: Inhibitory activity against Dihydrofolate reductase from Lactobacillus casei
# MDA-N [8] = assay: Cytotoxic activity against MDA-N breast cancer cell line; assay type: functional; details: Homo sapiens
smiles,measurement,setting,value
C#CCN(Cc1cnc2nc(N)nc(N)c2c1C)c1cc(OC)c(OC)c(OC)c1,IC50,Dihydrofolate reductase [1],53.5 nM
same,IC50,[2],7.7 nM
same,IC50,Dihydrofolate reductase [3],11.8 nM
COc1cc(N(C)Cc2cnc3nc(N)nc(N)c3c2C)cc(OC)c1OC,IC50,Toxoplasma gondii,4700 nM
COc1cc(OC)cc(N(C)Cc2cnc3nc(N)nc(N)c3c2C)c1,IC50,Dihydrofolate reductase [1],130 nM
same,GI50,HCT-15,2120 nM
same,GI50,786-0,630 nM
same,GI50,SW-620,5500 nM
same,GI50,MDA-MB-231,9220 nM
same,GI50,UACC-62,628 nM
same,GI50,NCI-H460,544 nM
same,GI50,K562,209 nM
same,GI50,SK-MEL-5,596 nM
same,GI50,MDA-N [4],527 nM
same,GI50,IGROV-1,956 nM
same,GI50,PC-3,594 nM
same,GI50,SR,541 nM
same,GI50,MOLT-4,742 nM
same,GI50,ACHN,816 nM
same,GI50,HT-29,5840 nM
same,GI50,SF-295,5150 nM
same,IC50,[2],58 nM
same,GI50,SF-268,717 nM
same,GI50,MDA-MB-435,6930 nM
same,GI50,UACC-257,620 nM
same,GI50,CCRF-CEM,536 nM
same,GI50,LOX IMVI,1990 nM
same,GI50,HCT-116,410 nM
same,GI50,DU-145,4360 nM
same,IC50,Dihydrofolate reductase [3],170 nM
same,GI50,A549,442 nM
same,GI50,U-251,529 nM
COc1ccc(NCc2cnc3nc(N)nc(N)c3c2C)c2ccccc12,IC50,Dihydrofolate reductase [1],41 nM
same,GI50,NCI-H322M,85 nM
same,GI50,HCT-15,45.6 nM
same,GI50,786-0,55 nM
same,GI50,SW-620,79.6 nM
same,GI50,MDA-MB-231,18.8 nM
same,GI50,UACC-62,43.2 nM
same,Ratio,[5],2
same,GI50,NCI-H460,49.1 nM
same,GI50,K562,16.1 nM
same,GI50,SK-MEL-5,57.8 nM
same,GI50,MDA-N [4],42.5 nM
same,GI50,[6],86.8 nM
same,GI50,PC-3,79.8 nM
same,GI50,SR,76 nM
same,GI50,MOLT-4,91.1 nM
same,GI50,ACHN,47.9 nM
same,GI50,HT-29,72.3 nM
same,GI50,SF-295,83.2 nM
same,IC50,[2],23 nM
same,GI50,SF-268,60.4 nM
same,GI50,MDA-MB-435,62.1 nM
same,GI50,UACC-257,86.8 nM
same,GI50,CCRF-CEM,76.6 nM
same,GI50,LOX IMVI,69.4 nM
same,IC50,Toxoplasma gondii,40 nM
same,GI50,HCT-116,11.7 nM
same,GI50,DU-145,52.1 nM
same,IC50,Dihydrofolate reductase [3],54 nM
same,GI50,A549,38.4 nM
same,GI50,U-251,72.9 nM
COc1cc(NCc2cnc3nc(N)nc(N)c3c2C)cc(OC)c1,IC50,Dihydrofolate reductase [1],22.9 nM
same,Ratio,[5],125
same,IC50,[2],4.8 nM
same,IC50,Toxoplasma gondii,600 nM
same,IC50,Dihydrofolate reductase [3],42.5 nM
COc1ccc(OC)c(N(C)Cc2cnc3nc(N)nc(N)c3c2C)c1,IC50,Dihydrofolate reductase [1],216 nM
same,GI50,NCI-H322M,5560 nM
same,GI50,HCT-15,2540 nM
same,GI50,786-0,843 nM
same,GI50,SW-620,5040 nM
same,GI50,MDA-MB-231,764 nM
same,GI50,UACC-62,1150 nM
same,Ratio,[5],35
same,GI50,K562,499 nM
same,GI50,SK-MEL-5,1560 nM
same,GI50,MDA-N [4],6620 nM
same,GI50,IGROV-1,5450 nM
same,GI50,PC-3,783 nM
same,GI50,SR,7450 nM
same,GI50,MOLT-4,3160 nM
same,GI50,ACHN,3750 nM
same,GI50,HT-29,3220 nM
same,GI50,SF-295,3410 nM
same,IC50,[2],30.1 nM
same,GI50,SF-268,5910 nM
same,GI50,MDA-MB-435,4180 nM
same,GI50,UACC-257,20000 nM
same,GI50,CCRF-CEM,7150 nM
same,GI50,LOX IMVI,5820 nM
same,IC50,Toxoplasma gondii,1050 nM
same,GI50,HCT-116,3970 nM
same,GI50,DU-145,2710 nM
same,IC50,Dihydrofolate reductase [3],407 nM
same,GI50,A549,732 nM
same,GI50,U-251,4210 nM
CCOc1ccc(OCC)c(NCc2cnc3nc(N)nc(N)c3c2C)c1,IC50,Dihydrofolate reductase [1],76.7 nM
same,Ratio,[5],19
same,IC50,[2],17 nM
same,IC50,Toxoplasma gondii,320 nM
same,IC50,Dihydrofolate reductase [3],17.4 nM
CCN(Cc1cnc2nc(N)nc(N)c2c1C)c1cc(OC)c(OC)c(OC)c1,IC50,Dihydrofolate reductase [1],49.7 nM
same,IC50,[2],7.7 nM
same,IC50,Dihydrofolate reductase [3],10.5 nM
COc1cc(N(Cc2cnc3nc(N)nc(N)c3c2C)C(C)C)cc(OC)c1OC,IC50,Dihydrofolate reductase [1],13.4 nM
same,IC50,[2],6.7 nM
same,IC50,Dihydrofolate reductase [7],210 nM
same,IC50,Dihydrofolate reductase [3],17.5 nM
COc1ccc(N(C)Cc2cnc3nc(N)nc(N)c3c2C)c(OC)c1,IC50,Dihydrofolate reductase [1],510 nM
same,Ratio,[5],46
same,IC50,[2],38 nM
same,IC50,Toxoplasma gondii,1730 nM
same,IC50,Dihydrofolate reductase [3],330 nM
COc1ccc(NCc2cnc3nc(N)nc(N)c3c2C)cc1OC,IC50,Dihydrofolate reductase [1],44 nM
same,IC50,[2],8.8 nM
same,IC50,Dihydrofolate reductase [7],83 nM
same,IC50,Dihydrofolate reductase [3],7.6 nM
COc1cc(NCc2ccc3nc(N)nc(N)c3c2C)cc(OC)c1OC [TRIMETREXATE],IC50,Dihydrofolate reductase [7],27 nM
CCOc1ccc(OCC)c(N(C)Cc2cnc3nc(N)nc(N)c3c2C)c1,IC50,Dihydrofolate reductase [1],3100 nM
same,IC50,[2],100 nM
same,IC50,Dihydrofolate reductase [3],3000 nM
COc1ccc(OC)c(NCc2cnc3nc(N)nc(N)c3c2C)c1,IC50,Dihydrofolate reductase [1],46 nM
same,Ratio,[5],94
same,IC50,[2],16 nM
same,IC50,Toxoplasma gondii,1500 nM
same,IC50,Dihydrofolate reductase [7],39 nM
same,IC50,Dihydrofolate reductase [3],128 nM
COc1ccc(NCc2cnc3nc(N)nc(N)c3c2C)c(OC)c1,IC50,Dihydrofolate reductase [1],316 nM
same,GI50,NCI-H322M,50600 nM
same,GI50,HCT-15,2200 nM
same,GI50,786-0,588 nM
same,GI50,MDA-MB-231,1910 nM
same,GI50,UACC-62,126000 nM
same,GI50,NCI-H460,481 nM
same,GI50,K562,305 nM
same,GI50,SK-MEL-5,1150 nM
same,GI50,IGROV-1,6270 nM
same,GI50,PC-3,852 nM
same,GI50,SR,3530 nM
same,GI50,MOLT-4,1220 nM
same,GI50,ACHN,2890 nM
same,GI50,HT-29,2380 nM
same,GI50,MDA-N [8],359 nM
same,GI50,SF-295,1610 nM
same,IC50,[2],56.5 nM
same,GI50,SF-268,4170 nM
same,GI50,MDA-MB-435,3530 nM
same,GI50,UACC-257,100000 nM
same,GI50,CCRF-CEM,4290 nM
same,GI50,LOX IMVI,3350 nM
same,GI50,HCT-116,173 nM
same,GI50,DU-145,2830 nM
same,IC50,Dihydrofolate reductase [3],214 nM
same,GI50,A549,635 nM
same,GI50,U-251,5810 nM
COc1ccc(N(C)Cc2cnc3nc(N)nc(N)c3c2C)cc1OC,IC50,Dihydrofolate reductase [1],320 nM
same,IC50,[2],29 nM
same,IC50,Dihydrofolate reductase [3],44 nM
Cc1c(CNc2cccc3ccccc23)cnc2nc(N)nc(N)c12,IC50,Dihydrofolate reductase [1],573 nM
same,Ratio,[5],7
same,IC50,[2],14.5 nM
same,IC50,Toxoplasma gondii,100 nM
same,IC50,Dihydrofolate reductase [3],29.6 nM
